# Assay results: ChEMBL document CHEMBL3044794, “Antifungal activity of some tetranortriterpenoids” (2000)
# What was measured:
# Puccinia arachidis [1] = assay: Antifungal activity against Puccinia arachidis in ground nut assessed as rust pustule count at 1 ug/cm'2 measured after 12 days from inoculation (reference value: 22.73 %); assay type: functional
# Puccinia arachidis [2] = assay: Antifungal activity against Puccinia arachidis in ground nut assessed as rust pustule count at 10 ug/cm'2 measured after 12 days from inoculation; assay type: functional
SMILES,inhibition (INH) (Puccinia arachidis [1]) [%],inhibition (INH) (Puccinia arachidis [2]) [%]
CC(=O)O[C@@H]1C[C@H]2C(C)(C)C(=O)C=C[C@]2(C)[C@H]2CC[C@]3(C)C(=CC(=O)[C@H]3c3ccoc3)[C@@]21C [AZADIRADIONE],75.7,76.9
CC1(C)C(=O)C=C[C@@]2(C)C1=C(O)C(=O)[C@]1(C)[C@@H]2CC[C@@]2(C)[C@H](c3ccoc3)C[C@H]3O[C@]321 [CEDRELONE],98.4,93.4
CC(=O)OC1=C2C(C)(C)C(=O)CC[C@]2(C)[C@H]2CC[C@@]3(C)[C@H](c4ccoc4)C[C@H]4O[C@]43[C@]2(C)C1=O [DIHYDROCEDRELONEDIACETATE],77.6,87
CC1(C)C(=O)CC[C@@]2(C)C1=C(O)C(=O)[C@]1(C)[C@@H]2CC[C@@]2(C)[C@H](c3ccoc3)C[C@H]3O[C@]321 [DIHYDROCEDRELONE],42.6,66.7
CC1(C)C(=O)C=C[C@@]2(C)C1C(O)(C(=O)O)[C@@]1(C)C[C@@]34O[C@@H]3C[C@@H](c3ccoc3)C4C[C@H]21 (stereo partly drawn) [ISOCEDRELONIC ACID],36.9,91.4
CC1(C)O[C@H]2CC(=O)OC[C@]23[C@H]2CC[C@@]4(C)[C@H](c5ccoc5)OC(=O)[C@H]5O[C@]54[C@]2(C)C(=O)C[C@@H]13 [LIMONIN],67.7,-15.7
CC1(C)O[C@H]2CC(=O)OC[C@]23[C@H]2CC[C@@]4(C)[C@@H](c5ccoc5)OC(=O)[C@H]5O[C@]54[C@]2(C)[C@H](O)C[C@@H]13 [LIMONOL],37.9,62.3
COC(=O)C1(O)C2C(C)(C)C(=O)C=C[C@]2(C)[C@H]2CC3[C@H](c4ccoc4)C[C@H]4O[C@@]34C[C@@]21C (stereo partly drawn) [METHYL ISOCEDRELONATE],7.6,2.3
CC(=O)O[C@H](CC(=O)O)[C@]1(C)[C@H]2CC[C@@]3(C)[C@@H](c4ccoc4)OC(=O)[C@H]4O[C@]43[C@]2(C)C(=O)C[C@H]1C(C)(C)O [NOMILINIC ACID],28.5,34.2
